We go through seven compounds from US5958947A, “DNA-affinic hypoxia selective cytotoxins” (priority 1996, dated 1999).

Several values for one entry are separate records, joined by “and”; a condition that tells them apart may be missing. Equal values may be shown once. Where a name gives a salt, the structure may show the parent alone. Read-outs that look alike come from different tables or passages of the source.

In data set [1] the test system is V79 Chinese hamster lung cells. The following applies: intracellular concentration for an SER of 1.6, hypoxic cells; no experiment described; cited from earlier work.
The conditions of data set [2]: in vivo; cited from earlier work.
Data set [3] can be described thus: Acute aerobic and hypoxic cytotoxicity (colony formation). In kind it is cell-based, Chinese hamster. The settings on record: chinese hamster, aerobic v79 cells, V79 cells, aerobic, 1 hour, 37° C.; 50% inhibition of clonogenicity. On the procedure:
(§1) Samples of V79 Chinese hamster lung cells used in the following experiments were prepared as follows. V79 cells, exponentially growing as monolayer cultures in RPMI 1640 medium (Mediatech) supplemented with 10% fetal calf serum, were trypsinized, centrifuged for 5 min, harvested, then suspended in 25 ml Erlenmeyer flasks fitted with rubber caps at 5×10^5 cells/ml (5 ml). Individual flasks either were shaken (100 rpm) at 37° C. under aerobic conditions or made hypoxic by gassing with a 95% N2 (nitrogen)/5% CO2 (carbon dioxide) humidified gas mixture for 1 hour.
(§2) To determine the fraction of surviving cells, samples were removed, diluted and plated to provide 2×10^2 to 2×10^4 cells/well on 60 mm Linbro multi-well plates (Flow Laboratories, McLean, Virginia). The plates were incubated at 37° C. for 6 days, stained with crystal violet and examined for colony formation. Colonies of 50 cells or greater were counted. Each plotted point in FIGS. 1 and 2 represent the mean of three or four replicate experiments.

Data set [4] deals with V79 Chinese hamster lung cells. The description is as above. In kind it is cell-based. The settings on record: V79 cells, 1 hour, 37° C.; for IC50: Cricetulus griseus, V79, 1 h, hypoxia, 50% inhibition of clonogenicity. On the procedure:
as §1, §2

Data set [5] deals with V79 Chinese hamster lung cells. Nature of the data set: Radiosensitization of V79 cells. The data set is classed as cell-based. The following applies: for EC (SER 1.6): Cricetulus griseus; for maximum SER value: hypoxic V79 cells, 100 μM for THNLA-1, non-toxic concentrations for others; for Therapeutic index (ThI): IC50/A,1h /C1.6: in vitro, V79 cells, hydrochloride. As for the experimental part: as §1
Radiosensitization studies were performed on V79 cells in a manner similar to the acute toxicity experiments, except that the survival fraction was determined after a predetermined radiation dose. […] One Gy is equal to 100 rads, wherein one rad is the quantity of ionizing radiation that results in the absorption of 100 ergs of energy per gram of irradiated material. Hypoxia was maintained throughout irradiation. […] Sensitization enhancement ratios (SER) were determined at a 10% survival level. […] The plotted points in FIGS. 3 and 4 represent the mean of 2 or 3 replicate experiments.

The test system of data set [6] is V79 cells. The data set is described as follows: Isoeffective to the oxygen dose (IsD). In kind it is cell-based, Chinese hamster. The settings on record: Cricetulus griseus, V79, 1 h. The text has this:
The survival fraction under hypoxic conditions (plotted versus compound concentration) meets the aerobic survival fraction (radiation toxicity) at the IsD. The IsD value is a useful indicator of the overall potency of a compound as a sensitizer and cytotoxin of hypoxic cells. IsD is especially useful when comparing different compounds for hypoxic cytotoxicity and radiosensitizing efficacy.
FIGS. 5 and 6 illustrate the IsD at 7.5 Gy (FIG. 5A) and 20 Gy (FIG. 5B). FIGS. 5A and 6A include a comparison to the prior art NLA-1 compound. V79 cells were irradiated at 7.5 Gy or 20 Gy after a 1 hour exposure under hypoxia (symbols) or air (straight line), at various drug concentrations. No toxicity or radiosensitization for any tested compound was observed under aerobic conditions over the tested concentration ranges. IsD values were calculated from the intersections of the survival fractions of the hypoxic curves with the survival fraction in air. All data points in FIGS. 5 and 6 represent the mean of two replicate experiments.

Data set [7] can be described thus: Partition coefficient in octanol/water. In kind it is physicochemical. As for the experimental part: The partition coefficient of the hypoxia selective cytotoxins of the present invention were determined by the method of T. Fujita et al., J. Am. Chem. Soc., 86, 5175-5180 (1964), incorporated herein by reference.
Data set [8] addresses T1, calf thymus Topo I (Bos taurus, UniProt F1MN93).
T1 construct: purchased TopoGEN, Inc., Columbus, Ohio; host or cells: calf thymus
T1 sequence (F1MN93 1-767): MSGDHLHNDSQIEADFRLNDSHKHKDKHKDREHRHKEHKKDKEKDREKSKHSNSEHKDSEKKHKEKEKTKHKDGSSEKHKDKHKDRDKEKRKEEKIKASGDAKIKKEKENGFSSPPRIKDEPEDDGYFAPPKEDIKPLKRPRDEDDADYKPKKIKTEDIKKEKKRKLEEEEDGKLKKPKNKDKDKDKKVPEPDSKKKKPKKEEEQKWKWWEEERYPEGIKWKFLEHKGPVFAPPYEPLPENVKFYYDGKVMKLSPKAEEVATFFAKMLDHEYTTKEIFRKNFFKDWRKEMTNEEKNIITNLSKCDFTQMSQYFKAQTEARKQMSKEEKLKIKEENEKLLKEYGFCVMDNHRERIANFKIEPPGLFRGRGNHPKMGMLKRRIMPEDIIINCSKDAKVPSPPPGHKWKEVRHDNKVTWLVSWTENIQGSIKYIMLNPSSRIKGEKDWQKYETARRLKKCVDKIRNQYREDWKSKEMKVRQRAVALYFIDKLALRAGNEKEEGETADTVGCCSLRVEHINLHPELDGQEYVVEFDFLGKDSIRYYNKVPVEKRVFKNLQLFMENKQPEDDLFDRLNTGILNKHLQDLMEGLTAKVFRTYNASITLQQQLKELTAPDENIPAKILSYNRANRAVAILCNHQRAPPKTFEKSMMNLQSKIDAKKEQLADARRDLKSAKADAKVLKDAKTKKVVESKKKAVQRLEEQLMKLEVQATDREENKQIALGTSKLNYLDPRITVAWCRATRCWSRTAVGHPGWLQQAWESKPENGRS
The data set is described as follows: Topoisomerase I interaction (relaxation of supercoiled DNA). In kind it is biochemical. As for the experimental part:
In particular, a Topo I drug screening kit (TopoGEN, Inc., Columbus, Ohio) was used to assay the topoisomerase I THNLA-1 interaction. […] Camptothecin is a Topoisomerase I poison used as an anticancer drug. Camptothecin stabilizes the Topo I-DNA cleavable complex, and therefore prevents the resealing of DNA by Topo-I.
Individual reaction mixtures were heated for 30 minutes at 37° C. on a heating block, and then 2 μl of 10% SDS - proteinase K solution was added to each reaction mixture. The resulting reaction mixtures then were heated for an additional 30 minutes at 37° C. The reaction mixtures in a loading buffer were extracted with CHCl3 prior to submarine electrophoresis on a 1% agarose gel. The DNA bands were observed visually by staining with ethidium bromide (0.5 μg/ml).

In data set [9] the test system is human Topo II. The data set is described as follows: Topoisomerase II interaction (decatenation of kinetoplast DNA). In kind it is biochemical. The settings on record: up to 1 mM. On the procedure:
A Topo II assay kit (TopoGEN, Inc., Columbus, Ohio) also was used to assay the topoisomerase II--THNLA-1 interaction. […] Individual reaction mixtures were heated for 30 minutes at 37° C. on a heating block, and then 2 μl of a 10% SDS-proteinase K solution was added to each reaction mixture. The resulting reaction mixtures then were heated for an additional 30 minutes at 37° C. After addition of a 0.1 volume of loading buffer, the reaction mixtures were extracted with CHCl3 prior to submarine electrophoresis on a 1% agarose gel containing ethidium bromide (0.5 μg/ml).

Data set [10] has as its system supercoiled DNA. The data set is described as follows: DNA intercalation by agarose gel electrophoresis (mobility of supercoiled DNA). In kind it is binding. The settings on record: electrophoretic gel, up to millimolar concentrations. The text has this: An agarose gel electrophoresis technique was used to determine whether THNLA-1 intercalates DNA. Compounds that strongly intercalate DNA retard DNA mobility during agarose gel electrophoresis due to unwinding and extension of the dsDNA.

A short description of data set [11]: Water solubility.
For data set [12], the system named is DNA. The following applies: cited from earlier work.
For data set [13], the system named is mammalian cell cultures. The following applies: cited from earlier work.
For data set [14] the following is noted: cited from earlier work.
Data set [15] concerns hypoxic cells. The following applies: cited from earlier work.
Data set [16] deals with V79 cells. The data set is described as follows: Chemosensitization to L-PAM or cis-DDP in V79 cells. The data set is classed as cell-based, Chinese hamster. The settings on record: V79 cells. On the procedure:
L-PAM, also known as phenylalanine mustard and available from Sigma Chem. Co., St. Louis, Mo., first was dissolved in an ethanolic solution of HCl (0.5N). The ethanolic HCl solution was buffered with propylene glycol in a 1:9 ratio of ethanolic HCl solution to propylene glycol, and finally diluted 100 fold with suspension medium. cis-DDP, a platinum-based chemotherapeutic agent available from Sigma Chem. Co., St. Louis, Mo., was dissolved in water to a predetermined concentration.
Experiments using a simultaneous addition of the sensitizer and chemotherapeutic agent for 1 hour at 37° C. under aerobic conditions were also performed.
In all experiments, controls for the hypoxic cytotoxicity of the sensitizer and the toxicity of the chemotherapeutic alone were included. Survival curves were normalized for the hypoxic cytotoxicity of sensitizer in order to determine the dose modification factor (DMF), i.e., the ratio of chemotherapeutic agent concentrations required to reduce cell survival to a predetermined level (e.g., 0.5) alone or in combination with a sensitizer. Synergism between the chemotherapeutic agent and the chemosensitizer was determined using the fractional product concept which is applied in instances of independent action of drugs, or by isobologramic analysis. The results of the chemosensitization studies are illustrated in FIGS. 12-15.

Setting [17] is: V79, 1 h, read-out: Hypoxic radiosensitizing potency: C1.6, concentration yielding an SER of 1.6, hypoxic V79 cells.
The mark [18] stands for this setting: V79, read-out: Intracellular concentration at C1.6: C1.6i, hypoxic radiosensitization, V79 cells (tables).

`O=[N+]([O-])c1nccn1CC(O)CN1CCCCC1` (centres unmarked) [pimonidazole]: in data set [1], the “C1.6i of comparison sensitizers” value is listed as 0.69 mM. The “dose administrable to humans relative to MISO” value in data set [2] is given as “total dose limitation similar to MISO”.

For `CN1CCc2nc3ccccc3c(NCCCn3ccnc3[N+](=O)[O-])c2C1` [MeN-THNLA-1, 10-[3-(2-nitroimidazolyl)propylamino]-2-methyl-1,2,3,4-tetrahydro-benzo[b]-1,6-naphthyridine hydrochloride], the IC50 at 1 h in data set [3] amounted to 426 µM. Further, in data set [4], half-maximal inhibition (IC50) was put at 196 µM and the “Hypoxic selectivity (differential aerobic/hypoxic toxicity): IC50/A,1h /IC50/H,1h” value is on record as 2.2. In addition, the EC (SER 1.6) in [5] (setting [17]) came to 59 µM. For the same compound, the EC (SER 1.6) in data set [5] (setting [18]) was found to be 586 µM. Besides, in [5], the “maximum SER value” was “equal to OER” and the “Therapeutic index (ThI): IC50/A,1h /C1.6” value is “about 7”. In addition, the relative radiosensitizing potency result in data set [5] (on the basis of C1.6i values) was “more potent radiosensitizer than NLA-1, miso and pimonidazole”. Further, the EC (isoeffective to oxygen at 20 Gy) in data set [6] (read-out: Isoeffective to the oxygen dose at 20 Gy: IsD) is approximately 127 µM. Further, the “Partition coefficient in octanol/water: PCo/w” value in data set [7] (hydrochloride) is 0.40 and 0.41. Also, the “formation of nicked DNA with Topo I” value in data set [8] (in Topo I test) is “no formation of nicked DNA was observed”. Also, the “inhibition of Topo I-induced relaxation” value in data set [8] (supercoiled DNA) is reported as “only partially inhibited Topo I”. Moreover, the “inhibition of Topo II-induced decatenation of kinetoplast DNA” value in data set [9] is listed as “did not inhibit the action of Topoisomerase II on kinetoplast DNA”. In [10], the “effect on mobility of supercoiled DNA” value is “do not affect the mobility of supercoiled DNA”. This compound displayed a solubility in data set [11] of approximately 20 mM.

`O=C(Cn1ccnc1[N+](=O)[O-])NCCO` [etanidazole]: in [2], the “dose administrable to humans relative to MISO” value is on record as “about a threefold higher dose than MISO” and the neurotoxicity result is “less neurotoxic”.

Consider `COCC(O)Cn1ccnc1[N+](=O)[O-]` (centres unmarked) [MISO], for which the “C1.6i of comparison sensitizers” value in data set [1] was 0.70 mM. Besides, the neurotoxicity entry in data set [2] is “significant neurotoxicity”.

Turning to `CN(C)CCCNc1c2ccccc2nc2cccc([N+](=O)[O-])c12` [nitracrine, 1-nitro-acridine], the “DNA dissociation kinetics / intercalation” value in data set [12] is recorded as “faster dissociation kinetics from DNA than the other nitroacridine isomers”. Moreover, the “potency as radiation sensitizer / hypoxia selective cytotoxin” value in [13] is “potent hypoxia selective cytotoxin and a radiation sensitizer”; in data set [13] (listed as 1-nitracrine), “twenty times more potent as a sensitizer than other nitracrine isomers tested”. Besides, the metabolism in vivo result in data set [14] was “rapid metabolism”.

For `O=[N+]([O-])c1nccn1CC(O)CN1CC1` (centres unmarked) [RSU-1069], the “activity relative to MISO” value in data set [15] (experimental systems) is recorded as “substantially greater activity than MISO”. Also, the “fold lower toxic concentration for hypoxic versus aerobic cells” value in data set [15] (in vitro) is approximately 100 fold.

In data set [3], `O=[N+]([O-])c1nccn1CCCNc1c2c(nc3ccccc13)CCC2` [NLCPQ-1, 9-[3-(2-nitro-1-imidazolyl)propylamino]cyclopenten[b]quinoline hydrochloride] gave an IC50 at 1 h of 170 µM. Also, the IC50 in data set [4] worked out at 22 µM. Besides, the results for the EC (SER 1.6) in data set [5] (setting [17]) and in data set [5] (setting [18]) were 7 µM and 209 µM, respectively. In addition, the “maximum SER value” in [5] is “equal to OER”. The “Therapeutic index (ThI): IC50/A,1h /C1.6” value in data set [5] came to 25. Besides, the EC (isoeffective to oxygen at 7.5 Gy) in [6] (read-out: Isoeffective to the oxygen dose at 7.5 Gy: IsD(7.5)) worked out at 25.5 µM. In addition, the “Partition coefficient in octanol/water: PCo/w” value in data set [7] is reported as 0.30. The logP in data set [7] (read-out: Partition coefficient in octanol/water: PCo/w (converted)) is -0.523. Further, in data set [16], the “chemosensitization to L-PAM or cis-DDP” value is reported as “strong chemosensitizers”. In data set [11], this compound yielded a solubility of approximately 11 mM.
